Data reported in publication PMC7456963, “HPLC-Based Activity Profiling for Antiprotozoal Compounds in Croton gratissimus and Cuscuta hyalina” (Frontiers in Pharmacology, 2020).
Where two headings read alike, the source gives them in different places.

Key:
[1] = test system: P. falciparum NF54 erythrocytic stages; assay: Activity against Plasmodium falciparum (3H-hypoxanthine incorporation); type: cell-based; settings: for Selectivity index (SI): IC50 in L6 cells divided by IC50 in P. falciparum: L6 cells vs P. falciparum NF54
Protocol: In vitro activity against the erythrocytic stages of P. falciparum was determined using a ^3H-hypoxanthine incorporation assay ([Desjardins et al., 1979]), using the drug sensitive NF54 strain ([Ponnudurai et al., 1981]). Compounds were dissolved in DMSO at 10 mg/ml and further diluted in medium before addition to parasite cultures incubated in RPMI 1640 medium without hypoxanthine, supplemented with HEPES (5.94 g/L), NaHCO3 (2.1 g/L), neomycin (100 U/ml), Albumax^R (5 g/L), and washed human red cells A^+ at 2.5% haematocrit (0.3% parasitemia). Serial drug dilutions of 11 three-fold dilution steps covering a range from 100 to 0.002 μg/ml were prepared. The 96-well plates were incubated in a humidified atmosphere at 37°C; 4% CO2, 3% O2, 93% N2. After 48 h, 50 μl of ^3H-hypoxanthine (=0.5 μCi) was added to each well of the plate. The plates were incubated for a further 24 h under the same conditions. The plates were then harvested with a Betaplate™ cell harvester (Wallac, Zurich, Switzerland), the red blood cells transferred onto a glass fibre filter, and lysed with distilled water. The dried filters were inserted into a plastic foil with 10 ml of scintillation fluid and counted in a Betaplate™ liquid scintillation counter (Wallac, Zurich, Switzerland). IC50 values were calculated from sigmoidal inhibition curves by linear regression using Microsoft Excel. Chloroquine (Sigma C6628) was used as control. Assays were performed in two independent replicates at least.

[2] = Cytotoxicity to macrophages determined in parallel to the intramacrophage assay; type: cell-based; settings: CDI, surviving, uninfected mouse peritoneal macrophages
Protocol: (§1) Macrophages were isolated from the mouse (CDI) peritoneal cavity ([Zhang et al., 2008]) using 2% starch solution as eliciting agent injected 2 day prior to cell harvest. Animal work was carried out according to the rules and regulations for the protection of animal rights (“Tierschutzverordnung”) of the Swiss “Bundesamt für Veterinärwesen” (License number 2374). Mouse peritoneal macrophages (4 × 10^4 in 100 µL RPMI 1640 medium with 10% heat-inactivated FBS) were seeded into wells of a 96-well plate. After 24 h, 2 × 10^5 amastigote L. donovani in 100 µL were added. The amastigotes were taken from an axenic amastigote culture grown at pH 5.4. The medium containing free amastigote forms was removed after 24 h and replaced with fresh medium. The washing step was repeated and afterward the serial drug dilution was prepared with at least 6 dilution steps. Compounds were dissolved in DMSO at 10 mg/ml and further diluted in medium. After 96 h of incubation at 37°C under a 5% CO2 atmosphere, the medium was removed, and cells were fixed by adding 50 µl 4% formaldehyde solution followed by a staining with a 5 µM DRAQ5 solution. Plates were imaged in ImageXpress XLS (MD) microscope using a 20× air objective (635 nm excitation: 690/50 emission). 9 images were collected per well. Automated image analysis was performed with a script developed on Meta Xpress Software (MD). Three outputs were provided for each well: i) number of host cell nuclei; ii) numbers of infected and non-infected host cells; iii) number of parasite nuclei per infected host cell. The IC50 values were calculated based on the infection rate and the numbers of intracellular amastigotes. The cytotoxicity to macrophages was determined in parallel, and IC50 values were calculated based on the numbers of surviving, uninfected macrophages. Miltefosine was used as control. Assays were performed in two independent replicates at least.

[3] = test system: L. donovani amastigotes in mouse peritoneal macrophages; assay: Activity against Leishmania donovani intramacrophage amastigotes (high-content imaging); type: cell-based; settings: Leishmania donovani, Peritoneal macrophage; amastigotes in mouse peritoneal macrophages, 96 h; read-out: IC50 L. donovani Intramacrophage
Protocol: as §1

[4] = test system: L-6 cells (rat skeletal myoblasts); assay: In vitro cytotoxicity with L-6 cells (resazurin); type: cell-based; settings: 70 h + 2 h resazurin, mean ± absolute deviation
Protocol: (§2) Assays were performed in 96-well microtiter plates, each well containing 100 µl of RPMI 1640 medium supplemented with 1% L-glutamine (200 mM) and 10% fetal bovine serum, and 4000 L-6 cells (a primary cell line derived from rat skeletal myoblasts) ([Ahmed et al., 1994]). Serial drug dilutions of 11 three-fold dilution steps covering a range from 100 to 0.002 μg/ml were prepared 24 h post seeding L-6 cells. The plates were incubated for 70 h and inspected under an inverted microscope to assure growth of the controls and sterile conditions. 10 µl of resazurin was then added to each well and the plates incubated for another 2 h. Then the plates were read with a Spectramax Gemini XS microplate fluorometer (Molecular Devices Cooperation, Sunnyvale, CA, USA) using an excitation wavelength of 536 nm and an emission wavelength of 588 nm. The IC50 values were calculated by linear regression and four-parameter logistic regression from the sigmoidal dose inhibition curves using SoftmaxPro software (Molecular Devices Cooperation, Sunnyvale, CA, USA). Podophyllotoxin (Sigma P4405) was used as positive control. All assays were performed in two independent replicates at least. Activities of all compounds were expressed in µM using the formula: […]

[5] = test system: L. donovani strain MHOM/ET/67/L82 axenic amastigotes; assay: Activity against Leishmania donovani axenic amastigotes (resazurin); type: cell-based; settings: for Selectivity index (SI): IC50 in L6 cells divided by IC50 in L. donovani axenic amastigotes: L6 cells vs axenic L. donovani; for IC50: Leishmania donovani, pH 5.4, axenic amastigotes, MHOM/ET/67/L82, pH 5.4, 70 h + 2 h resazurin, mean ± absolute deviation, at least two replicates, read-out: IC50 L. donovani Axenic
Protocol: Amastigotes of L. donovani strain MHOM/ET/67/L82 were grown under an atmosphere of 5% CO2 in air in axenic culture at 37°C in SM medium ([Cunningham, 1977]) at pH 5.4 supplemented with 10% heat-inactivated fetal bovine serum. 50 µL of culture medium was added in the wells of a 96-well plate and serial drug dilutions of eleven three-fold dilution steps covering a final range from 100 to 0.002 μg/ml were prepared. 50 µL culture medium with 2 × 10^5 amastigotes from axenic culture were added to each well. After 70 h of incubation the plates were inspected under an inverted microscope to assure growth of the controls and sterile conditions. 10 μl of resazurin (12.5 mg resazurin dissolved in 100 ml distilled water) were added to each well and the plates incubated for another 2 h. Then the plates were read with a Spectramax Gemini XS microplate fluorometer (Molecular Devices Cooperation, Sunnyvale, CA, USA) using an excitation wavelength of 536 nm and an emission wavelength of 588 nm. Data were analyzed using the software Softmax Pro (Molecular Devices Cooperation, Sunnyvale, CA, USA). Decrease of fluorescence (= inhibition) was expressed as percentage of the fluorescence of untreated control cultures and plotted against the drug concentrations. From the sigmoidal inhibition curves the IC50 values were calculated. Miltefosine was used as positive control drug. Assays were performed in two independent replicates at least.

[6] = test system: T. b. rhodesiense STIB 900 bloodstream forms; assay: Activity against Trypanosoma brucei rhodesiense STIB900 (resazurin); type: cell-based; settings: for Selectivity index (SI): IC50 in L6 cells divided by IC50 in T. b. rhodesiense: L6 cells vs T. b. rhodesiense STIB 900; for IC50: Trypanosoma brucei, 70 h, STIB 900 bloodstream forms, 70 h + resazurin, mean ± absolute deviation
Protocol: The stock was originally isolated from a patient and adapted to axenic culture conditions after several mouse passages and cloned. Minimum Essential Medium (50 µl) supplemented with 25 mM HEPES, 1 g/L additional glucose, 1% MEM non-essential amino acids (100×), 0.2 mM 2-mercaptoethanol, 1 mM Na-pyruvate ([Baltz et al., 1985]) and 15% heat inactivated horse serum was added to each well of a 96-well microtiter plate. Serial drug dilutions of eleven 3-fold dilution steps covering a range from 100 to 0.002 μg/ml were prepared. Then 4 × 10^3 bloodstream forms of T. b. rhodesiense STIB 900 in 50 µL were added to each well and the plate incubated for 70 h at 37°C and under a 5% CO2 atmosphere. 10 µL resazurin solution (resazurin, 12.5 mg in 100 ml double-distilled water) was then added to each well and incubation continued for a further 2–4 h ([Räz et al., 1997]). Plates were read with a Spectramax Gemini XS microplate fluorometer (Molecular Devices Cooperation, Sunnyvale, CA, USA) using an excitation wavelength of 536 nm and an emission wavelength of 588 nm. […] Melarsoprol (Arsobal Sanofi-Aventis, received from WHO) was used as control. Assays were performed in two independent replicates at least.

[7] = In vitro cytotoxicity with L-6 cells (resazurin); type: cell-based, rat; settings: rat, L6 cells, 70 h + 2 h resazurin, mean ± absolute deviation
Protocol: as §2

[8] = Plasmodium falciparum, NF54, 72 h, NF54 drug sensitive strain, erythrocytic stages, 72 h, mean ± absolute deviation, read-out: IC50 P. falciparum

| Structure (SMILES) | Selectivity index (SI): IC50 in L6 cells divided by IC50 in P. falciparum [1] | IC50 ([1]; NF54 drug sensitive strain, erythrocytic stages, 72 h, mean ± absolute deviation, read-out: IC50 P. falciparum) [µM] | IC50 [1, 8] [µM] | IC50 at 96 h [2] [µM] | IC50 [3] [µM] | IC50 L6 cells (cytotoxicity) [4] | Selectivity index (SI): IC50 in L6 cells divided by IC50 in L. donovani axenic amastigotes [5] | IC50 [5] [µM] | Selectivity index (SI): IC50 in L6 cells divided by IC50 in T. b. rhodesiense [6] | IC50 [6] [µM] | IC50 at 70 h ([7]; L-6 cells (rat skeletal myoblasts)) [µM] | IC50 P. falciparum ([1]; NF54 drug sensitive strain, erythrocytic stages, 72 h, mean ± absolute deviation) | IC50 at 70 h [7] [µM] | IC50 ([1]; Plasmodium falciparum, NF54, 72 h, read-out: IC50 P. falciparum, NF54 drug sensitive strain, erythrocytic stages, 72 h, mean ± absolute deviation) [µM] | IC50 ([1]; read-out: IC50 P. falciparum, NF54 drug sensitive strain, erythrocytic stages, 72 h, mean ± absolute deviation) [µM] |
| --- | --- | --- | --- | --- | --- | --- | --- | --- | --- | --- | --- | --- | --- | --- | --- |
| COc1ccc(-c2oc3cc(O)cc(O)c3c(=O)c2OC)cc1O [Compound 5, Quercetin-3,4′-dimethylether] | 1.1 | 18.2 ± 6.7 | < 20 | 42.7 ± 12.1 | > 33.3 | significant cytotoxicity | 1.3 | 15 to 22 | 2.9 | 6.6 ± 3.2 | – | – | – | – | – |
| O=C1C[C@@H](c2ccc(O)cc2)Oc2cc(O)cc(O)c21 [Compound 4, Naringenin] | 3.2 | – | 73.2 ± 5.9 | 333 ± 18.2 | > 121 | – | 5.6 | 41.8 ± 9.3 | 1.3 | – | 233 ± 36.9 | – | – | – | – |
| COc1cc(C(=O)O)ccc1O [Compound 7, 3-Methoxy-4-hydroxybenzoic acid] | – | – | 138 ± 12.2 | > 500 | > 595 | – | – | 153 ± 45.5 | – | 38.6 ± 5.9 | – | least active | 595 | – | – |
| COc1cc(-c2oc3cc(O)cc(O)c3c(=O)c2O)ccc1O [Compound 11, Isorhamnetin] | 6.0 | – | – | > 199 | > 210 | – | 6.0 | 21.7 ± 7.9 | 5.0 | 25.9 ± 5.4 | – | – | 130 ± 58.7 | ~20 | 21.6 ± 0.7 |
